In paper PMC5158193, “Molecular Characterization and Functional Analysis of a Novel Calcium-Dependent Protein Kinase 4 from Eimeria tenella” (PLoS ONE, 2016):

Biological target: T1, rEtCDPK4 (Eimeria tenella, UniProt A0A165BP42)
T1 construct: gene CDPK4; fragment, ORF bp 118-1777 (cDNA 303-1962); N-terminal 6xHis (pCold I), E. coli BL21; kinase domain and all six EF hands
T1 sequence (A0A165BP42 40-592): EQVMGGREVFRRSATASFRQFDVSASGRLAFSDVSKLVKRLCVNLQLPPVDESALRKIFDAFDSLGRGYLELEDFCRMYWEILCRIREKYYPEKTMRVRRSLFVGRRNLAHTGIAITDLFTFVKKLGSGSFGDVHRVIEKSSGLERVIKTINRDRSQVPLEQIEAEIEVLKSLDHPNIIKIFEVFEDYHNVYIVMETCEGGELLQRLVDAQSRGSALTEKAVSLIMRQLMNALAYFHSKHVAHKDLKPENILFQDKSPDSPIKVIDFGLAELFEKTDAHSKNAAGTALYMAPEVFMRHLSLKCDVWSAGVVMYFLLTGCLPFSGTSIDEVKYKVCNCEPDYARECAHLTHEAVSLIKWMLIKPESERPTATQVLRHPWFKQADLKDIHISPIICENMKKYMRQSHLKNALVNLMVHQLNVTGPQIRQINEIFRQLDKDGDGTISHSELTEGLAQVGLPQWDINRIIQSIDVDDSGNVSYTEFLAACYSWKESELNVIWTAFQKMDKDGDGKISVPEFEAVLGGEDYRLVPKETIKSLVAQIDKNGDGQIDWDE
Assay: PepTag C1-peptide non-radioactive kinase assay, A570
Format: biochemical
Settings: 1 mM ATP, 1.3 mM CaCl2, 10 mM MgCl2, phosphatidylserine, 47.5 μM PepTag C1-peptide, pH 7.4, 30 °C

Row | Compound | kinase activity at 100 μM inhibitor
1 | CC1CNCCN1S(=O)(=O)c1cccc2cnccc12 (centres unmarked) [H-7] | W-7, H-7, H-89, staurosporine, Ro-31-8220 and myristoylated peptide significantly decreased enzyme activity
2 | NCCCCCCNS(=O)(=O)c1cccc2c(Cl)cccc12 [W-7] | W-7, H-7, H-89, staurosporine, Ro-31-8220 and myristoylated peptide significantly decreased enzyme activity
3 | Cn1cc(C2=C(c3cn(CCCSC(=N)N)c4ccccc34)C(=O)NC2=O)c2ccccc21 [Ro-31-8220] | W-7, H-7, H-89, staurosporine, Ro-31-8220 and myristoylated peptide significantly decreased enzyme activity
4 | CN[C@@H]1C[C@H]2O[C@@](C)([C@@H]1OC)n1c3ccccc3c3c4c(c5c6ccccc6n2c5c31)C(=O)NC4 [staurosporine] | W-7, H-7, H-89, staurosporine, Ro-31-8220 and myristoylated peptide significantly decreased enzyme activity
5 | O=S(=O)(NCCNC/C=C/c1ccc(Br)cc1)c1cccc2cnccc12 [H-89] | W-7, H-7, H-89, staurosporine, Ro-31-8220 and myristoylated peptide significantly decreased enzyme activity
